In PubChem BioAssay AID1996:
≈ marks a conversion by molar mass, not a printed value. Where “and” joins values, the source holds several entries; their conditions need not be identical. Equal entries are not always repeated.

details: buffer; pH 7.4; 200.0 µM

Row | Compound | solubility kinetic
1 | CCCc1cc(=O)[nH]c(SCC(=O)NCCC2=CCCCC2)n1 | 48.2 µg/mL (≈ 144 µM)
2 | COc1ccc(N2CCN(c3ccc(Cl)nn3)CC2)cc1 | > 45.7 µg/mL
3 | O=C(c1ccc(Cl)cc1[N+](=O)[O-])N1CCOCC1 | 40.2 µg/mL (≈ 149 µM)
4 | CN(C)c1cc[n+](CC(=O)c2ccc(Br)cc2)cc1.[Cl-] | 52.8 µg/mL
5 | Cc1cc(C)cc(OCC(=O)OCC(=O)NC2CCCC2)c1 | 38.5 µg/mL (≈ 126 µM)
6 | COc1ccc(NS(=O)(=O)c2ccc(C(=O)N3CCC(C)CC3)cc2)cc1 | > 58.3 µg/mL
7 | O=C1NC(=O)C(=Cc2ccc(-c3ccccc3[N+](=O)[O-])o2)C(=O)N1 | 44.2 µg/mL (≈ 135 µM)
8 | CCCC(=O)Nc1ccc2c(c1)nc(CCN1CCCCC1)n2C | > 49.3 µg/mL
9 | COc1ccc(N=C2NC(=O)/C(=C\c3ccco3)S2)cc1 | 2.6 µg/mL (≈ 8.66 µM)
10 | CNS(=O)(=O)c1cc(Cl)ccc1Sc1ccccc1C(=O)O | > 53.7 µg/mL
11 | CSCC(=O)NCC1(N(C)Cc2ccccc2)Cc2ccccc2C1 | > 53.2 µg/mL
12 | N#Cc1c(-c2cccnc2)cc(-c2ccccc2)nc1N | 2.4 µg/mL (≈ 8.81 µM)
13 | O=C(O)C(=O)O.Oc1ccccc1CNCCCN1CCOCC1 | 41.5 µg/mL
14 | CC1CN(S(=O)(=O)c2cccc(C(=O)OCC(=O)N3CCCCCC3)c2)CC(C)O1 (stereo not drawn) | 12.9 µg/mL (≈ 29.4 µM)
15 | CCN(c1ccccc1)S(=O)(=O)c1cccc(C(=O)OCC(=O)Nc2ccc(NC(C)=O)cc2)c1 | 2.6 µg/mL (≈ 5.25 µM)
16 | C=CCN1C(=O)/C(=C/c2cc(C)n(-c3cccnc3)c2C)C(=O)NC1=S | 12.9 µg/mL (≈ 35.2 µM)
17 | CCN=C1S/C(=C\c2cc(Cl)c(OC)c(OC)c2)C(=O)N1CC | 0.8 µg/mL (≈ 2.25 µM)
18 | CC(C)N(C(=O)c1ccc(-c2ccccc2F)cc1)C(C)C | 23.4 µg/mL (≈ 78.2 µM)
19 | CCc1ccc(N(CC)C(=O)c2cn(C)c(=O)c3ccccc23)cc1 | > 50.2 µg/mL
20 | COc1ccc(-n2c(CCC(=O)O)ccc2-c2ccccc2)cc1 | > 48.2 µg/mL

Row | Compound | solubility kinetic
21 | Cc1cccc(N2CC(O)(c3cccs3)[N+]3=C2CCCCC3)c1.[Br-] (stereo not drawn) | > 61.1 µg/mL
22 | O=S(=O)(Nc1cc(S(=O)(=O)N2CCOCC2)ccc1Cl)c1ccccc1 | > 62.5 µg/mL
23 | CN1CCCC(OC(=O)c2ccccc2Br)C1.Cl (stereo not drawn) | > 50.2 µg/mL
24 | O=[N+]([O-])c1ccc(N2CCN(c3ccc(F)cc3)CC2)nc1 | 0.3 µg/mL (≈ 0.992 µM)
25 | C=CCN1CCN(c2ccncc2S(=O)(=O)N2CCCCC2)CC1 | > 52.6 µg/mL
26 | C=C(C)CNC(=S)NNC(=O)c1ccncc1 | > 37.5 µg/mL
27 | COc1cc(CN2CCCCCC2)c([N+](=O)[O-])cc1OC | 34.8 µg/mL (≈ 118 µM)
28 | Cc1ccc(CNC(=S)N2CCOCC2)cc1 | > 37.6 µg/mL
29 | CC1CCc2c(sc(/N=C/c3cccnc3)c2C(N)=O)C1 (stereo not drawn) | 26.8 µg/mL (≈ 89.5 µM)
30 | Cn1cnc2cc(NCc3ccccc3Cl)ccc21 | 34.7 µg/mL (≈ 128 µM)
31 | O=C(Nc1cccc2ncccc12)c1ccccc1[N+](=O)[O-] | 36.6 µg/mL (≈ 125 µM)
32 | c1cn(CCCNC2CCCCCCC2)cn1 | 23.9 µg/mL (≈ 102 µM)
33 | Cc1ccc(/C=C2\SC(N3CCCCC3)=NC2=O)cc1 | 5.7 µg/mL (≈ 19.9 µM)
34 | Cc1ccc(N2C(=O)CC(Cc3ccc(Cl)cc3)C2=O)cc1 (stereo not drawn) | 7.1 µg/mL (≈ 22.6 µM)
35 | CCCC(=O)N1CCCC(c2nc(-c3cccc(OC)c3)no2)C1 (stereo not drawn) | > 49.4 µg/mL
36 | CCOC(=O)C1=C(COC(=O)c2cccc(Cl)c2)NC(=O)NC1C (stereo not drawn) | 46.2 µg/mL (≈ 131 µM)
37 | CNC(=O)C(=O)Nc1cc2c3c(c1)C(C)C(=O)N3CCC2 (stereo not drawn) | > 43.1 µg/mL
38 | CC1CCN(C(=O)c2ccc(N3C(=O)C4CCC(C)CC4C3=O)cc2)CC1 (stereo not drawn) | 48.4 µg/mL (≈ 131 µM)
39 | CC(C)[C@@H](N)C(=O)N/N=C/c1ccc2nccnc2c1.Cl | > 46.2 µg/mL
40 | O=c1c2ccccc2[se]n1-c1ccccc1 | 13.6 µg/mL and 6.6 µg/mL

Row | Compound | solubility kinetic
41 | CCc1nonc1NC(=O)COc1cc(C)c(Cl)c(C)c1 | 0.3 µg/mL (≈ 0.969 µM)
42 | CN(c1ccccc1)S(=O)(=O)c1ccc(C(=O)NCc2ccc(F)cc2)cc1 | 8.1 µg/mL (≈ 20.3 µM)
43 | CC(C)Cc1nc2oc3c(NCC(C)O)ncnc3c2c2c1CCCC2 (stereo not drawn) | 2.1 µg/mL (≈ 5.92 µM)
44 | O=C(O)c1ccc(/C=N/NC(=S)NCCN2CCOCC2)cc1 | > 50.5 µg/mL
45 | COc1ccc(Cc2nc3ccccc3[nH]c2=O)cc1 | 4.7 µg/mL (≈ 17.6 µM)
46 | Cc1nc(C)c(N)c(=O)[nH]1.Cl | > 26.3 µg/mL
47 | COc1cc(S(=O)(=O)Nc2cccnc2)ccc1Cl | > 44.8 µg/mL
48 | O=C(COc1cc(F)ccc1[N+](=O)[O-])NCC1CCCO1 (stereo not drawn) | > 44.7 µg/mL
49 | Cc1nc(/N=C(\N)NC(=O)NC2CCCCC2)nc2ccccc12 | 12.7 µg/mL (≈ 38.9 µM)
50 | CC(C)(CO)NCc1c(OCc2ccc(Cl)cc2)ccc2ccccc12.Cl | 57.1 µg/mL
51 | O=C(c1cnc2nc3ccccc3n2c1)c1cc(F)ccc1O | 9.2 µg/mL (≈ 29.9 µM)
52 | CCC(C(=O)N1CCN(c2ncccn2)CC1)c1ccccc1 (stereo not drawn) | 41.7 µg/mL (≈ 134 µM)
53 | COC(/C(=N/O)c1ccc(Cl)cc1)c1ccccc1 (stereo not drawn) | 35.8 µg/mL (≈ 130 µM)
54 | Cc1ccc(NC(=O)CN(C)C(=O)C2CC(=O)N(Cc3ccccc3)C2)cc1 (stereo not drawn) | 44.7 µg/mL (≈ 118 µM)
55 | CSc1cccc(NC(=O)C2CC(=O)N(Cc3ccccc3)C2)c1 (stereo not drawn) | > 51.1 µg/mL
56 | CC1CC(C)CN(C(=O)COC(=O)c2nccnc2N)C1 (stereo not drawn) | > 43.9 µg/mL
57 | Cc1cc(C)cc(NC(=S)N2CCC(NC(=O)C3CC3)CC2)c1 | > 49.7 µg/mL
58 | CN1CCc2c(sc(/N=C/c3cc(C(C)(C)C)ccc3O)c2C#N)C1 | 3.4 µg/mL (≈ 9.62 µM)
